# In ChEMBL document CHEMBL1151886, “Synthesis and SAR of hydroxyethylamine based phenylcarboxyamides as inhibitors of BACE” (Bioorg Med Chem Lett, 2009):
# pIC50: −log10 of the molar value.
# Columns and labels:
# [1] = biological target: T1, Beta-secretase 1 (Homo sapiens, UniProt P56817); assay: Inhibition of BACE1 in human HEK293 cells overexpressing APP with Swedish mutation assessed as inhibition of amyloid beta 40 production; type: cell-based; conditions: for pIC50: read-out: IC50; for IC50: hek293
# [2] = biological target: T1, Beta-secretase 1; assay: Binding affinity to BACE assessed as displacement of [3H]BMS-599240; conditions: for pIC50: read-out: IC50
# T1 sequence (P56817 whole entry): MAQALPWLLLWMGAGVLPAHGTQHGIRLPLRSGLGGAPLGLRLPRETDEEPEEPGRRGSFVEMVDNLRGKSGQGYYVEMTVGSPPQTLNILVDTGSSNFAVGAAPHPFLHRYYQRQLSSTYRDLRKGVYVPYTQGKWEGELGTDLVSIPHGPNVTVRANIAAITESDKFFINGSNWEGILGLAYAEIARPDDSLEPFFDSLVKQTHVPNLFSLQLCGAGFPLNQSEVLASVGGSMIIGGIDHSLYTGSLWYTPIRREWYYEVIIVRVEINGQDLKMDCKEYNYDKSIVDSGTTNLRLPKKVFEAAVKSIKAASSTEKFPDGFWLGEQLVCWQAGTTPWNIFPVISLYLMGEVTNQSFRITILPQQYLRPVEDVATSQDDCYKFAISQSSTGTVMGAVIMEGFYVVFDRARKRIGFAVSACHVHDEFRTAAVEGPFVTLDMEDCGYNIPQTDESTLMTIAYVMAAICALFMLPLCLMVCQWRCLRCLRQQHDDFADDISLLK
Compound,pIC50 [1],pIC50 [2],IC50 [1],IC50 [2]
COc1cccc(CNC[C@@H](O)[C@H](Cc2cc(F)cc(F)c2)NC(=O)c2cc(/C(C)=N/OCC(C)C)cc(N(c3ccccc3)S(C)(=O)=O)c2)c1,,6.62,Not Active,
CCCN(CCC)C(=O)c1cc(C(=O)N[C@@H](Cc2cc(F)cc(F)c2)[C@H](O)CNCc2cccc(OC)c2)cc(/C(C)=N\OCc2ccccc2)c1,6.27,7.17,,
CCCN(CCC)C(=O)c1cc(CC(COC)OC)cc(C(=O)N[C@@H](Cc2cc(F)cc(F)c2)[C@H](O)CNCc2cccc(OC)c2)c1 (stereo not given in full),,< 5.70,Not Active,
CCCN(CCC)C(=O)c1cc(C(=O)N[C@@H](Cc2cc(F)cc(F)c2)[C@H](O)CNCc2cccc(OC)c2)cc(/C(C)=N\OCC(C)C)c1,6.44,7.26,,
COc1cccc(CNC[C@@H](O)[C@H](Cc2cc(F)cc(F)c2)NC(=O)c2cc(/C(C)=N\O)cc(N(C)S(C)(=O)=O)c2)c1,6.37,7.12,,
CO/N=C(/C)c1cc(C(=O)N[C@@H](Cc2cc(F)cc(F)c2)[C@H](O)CNCc2cccc(OC)c2)cc(N2CCCCS2(=O)=O)c1,6.46,7.28,,
COc1cccc(CNC[C@@H](O)[C@H](Cc2cc(F)cc(F)c2)NC(=O)c2cccc(C(=O)N[C@H](C)c3ccccc3)c2)c1,6.70,7.05,,
COc1cccc(CNC[C@@H](O)[C@H](Cc2cc(F)cc(F)c2)NC(=O)c2cc(/C(C)=N\OCc3ccccc3)cc(N3CCCCS3(=O)=O)c2)c1,6.09,7.51,,
COc1cccc(CNC[C@@H](O)[C@H](Cc2cc(F)cc(F)c2)NC(=O)c2cc(C(C)=O)cc(C(=O)NC(C)c3ccc(F)cc3)c2)c1 (stereo not given in full),7.04,7.29,,
COc1cccc(CNC[C@@H](O)[C@H](Cc2cc(F)cc(F)c2)NC(=O)c2cc(C(C)O)cc(N3CCCCS3(=O)=O)c2)c1 (stereo not given in full),6.52,7.37,,
COc1cccc(CNC[C@@H](O)[C@H](Cc2cc(F)cc(F)c2)NC(=O)c2cc(C(C)O)cc(N(c3ccccc3)S(C)(=O)=O)c2)c1 (stereo not given in full),,,Not Active,Not Active
COc1cccc(CNC[C@@H](O)[C@H](Cc2cc(F)cc(F)c2)NC(=O)c2cccc(N3CCCCS3(=O)=O)c2)c1,6.74,7.13,,
COc1cccc(CNC[C@@H](O)[C@H](Cc2cc(F)cc(F)c2)NC(=O)c2cc(C(C)=O)cc(N(C)S(C)(=O)=O)c2)c1,6.25,6.91,,
CCCN(CCC)C(=O)c1cccc(C(=O)N[C@@H](Cc2cc(F)cc(F)c2)[C@H](O)CNCc2cccc(OC)c2)c1,7.10,7.51,,
C=CCO/N=C(/C)c1cc(C(=O)N[C@@H](Cc2cc(F)cc(F)c2)[C@H](O)CNCc2cccc(OC)c2)cc(N(C)S(C)(=O)=O)c1,6.44,6.82,,
C=CCO/N=C(/C)c1cc(C(=O)N[C@@H](Cc2cc(F)cc(F)c2)[C@H](O)CNCc2cccc(OC)c2)cc(N2CCCCS2(=O)=O)c1,5.91,6.95,,

Compound,pIC50 [1],pIC50 [2],IC50 [1],IC50 [2]
C=CCO/N=C(/C)c1cc(C(=O)N[C@@H](Cc2cc(F)cc(F)c2)[C@H](O)CNCc2cccc(OC)c2)cc(C(=O)N[C@H](C)c2ccccc2)c1,6.30,7.07,,
CCCN(CCC)C(=O)c1cc(C(=O)N[C@@H](Cc2cc(F)cc(F)c2)[C@H](O)CNCc2cccc(OC)c2)cc(C(C)N)c1 (stereo not given in full),6.19,6.91,,
CO/N=C(\C)c1cc(C(=O)N[C@@H](Cc2cc(F)cc(F)c2)[C@H](O)CNCc2cccc(OC)c2)cc(N(C)S(C)(=O)=O)c1,7.28,7.22,,
COc1cccc(CNC[C@@H](O)[C@H](Cc2cc(F)cc(F)c2)NC(=O)c2cccc(C(=O)NC(C)c3ccc(F)cc3)c2)c1 (stereo not given in full),6.58,6.78,,
C=CCO/N=C(/C)c1cc(C(=O)NC(C)c2ccc(F)cc2)cc(C(=O)N[C@@H](Cc2cc(F)cc(F)c2)[C@H](O)CNCc2cccc(OC)c2)c1 (stereo not given in full),6.28,6.77,,
COc1cccc(CNC[C@@H](O)[C@H](Cc2cc(F)cc(F)c2)NC(=O)c2cc(C(C)=O)cc(N3CCCCS3(=O)=O)c2)c1,6.61,7.05,,
COc1cccc(CNC[C@@H](O)[C@H](Cc2cc(F)cc(F)c2)NC(=O)c2cc(/C(C)=N\OCC(C)C)cc(N3CCCCS3(=O)=O)c2)c1,5.68,6.37,,
COc1cccc(CNC[C@@H](O)[C@H](Cc2cc(F)cc(F)c2)NC(=O)c2cc(C(=O)NC(C)c3ccc(F)cc3)cc(C(C)O)c2)c1 (stereo not given in full),6.79,7.43,,
CCCN(CCC)C(=O)c1cc(Oc2ccccc2OC)cc(C(=O)N[C@@H](Cc2cc(F)cc(F)c2)[C@H](O)CNCc2cccc(OC)c2)c1,< 6.18,7.27,,
COc1cccc(CNC[C@@H](O)[C@H](Cc2cc(F)cc(F)c2)NC(=O)c2cc(/C(C)=N\O)cc(N3CCCCS3(=O)=O)c2)c1,6.93,7.42,,
CCCO/N=C(/C)c1cc(C(=O)N[C@@H](Cc2cc(F)cc(F)c2)[C@H](O)CNCc2cccc(OC)c2)cc(N(C)S(C)(=O)=O)c1,6.66,7.23,,
CO/N=C(/C)c1cc(C(=O)N[C@@H](Cc2cc(F)cc(F)c2)[C@H](O)CNCc2cccc(OC)c2)cc(C(=O)N[C@H](C)c2ccccc2)c1,7.09,7.49,,
COc1cccc(CNC[C@@H](O)[C@H](Cc2cc(F)cc(F)c2)NC(=O)c2cc(C(C)O)cc(N(C)S(C)(=O)=O)c2)c1 (stereo not given in full),6.91,7.37,,
COc1cccc(CNC[C@@H](O)[C@H](Cc2cc(F)cc(F)c2)NC(=O)c2cccc(N(C)S(C)(=O)=O)c2)c1,7.10,7.12,,
COc1cccc(CNC[C@@H](O)[C@H](Cc2cc(F)cc(F)c2)NC(=O)c2cc(/C(C)=N\OCC(C)C)cc(N(C)S(C)(=O)=O)c2)c1,< 6.18,6.76,,

# Further lines, with some results ahead:
pIC50 [1],pIC50 [2],Compound,IC50 [1],IC50 [2]
7.72,8.40,CCCN(CCC)C(=O)c1cc(C(C)=O)cc(C(=O)N[C@@H](Cc2cc(F)cc(F)c2)[C@H](O)CNCc2cccc(OC)c2)c1,,
7.14,7.70,COc1cccc(CNC[C@@H](O)[C@H](Cc2cc(F)cc(F)c2)NC(=O)c2cc(C(C)=O)cc(C(=O)N[C@H](C)c3ccccc3)c2)c1,,
7.28,8.00,CCCN(CCC)C(=O)c1cc(CCO)cc(C(=O)N[C@@H](Cc2cc(F)cc(F)c2)[C@H](O)CNCc2cccc(OC)c2)c1,,
7.35,7.70,CCCN(CCC)C(=O)c1cc(C(=O)N[C@@H](Cc2cc(F)cc(F)c2)[C@H](O)CNCc2cccc(OC)c2)cc(C(C)NC(C)=O)c1 (stereo not given in full),,
6.56,7.62,CO/N=C(/C)c1cc(C(=O)NC(C)c2ccc(F)cc2)cc(C(=O)N[C@@H](Cc2cc(F)cc(F)c2)[C@H](O)CNCc2cccc(OC)c2)c1 (stereo not given in full),,
6.86,7.96,COc1cccc(CNC[C@@H](O)[C@H](Cc2cc(F)cc(F)c2)NC(=O)c2cccc(N(c3ccccc3)S(C)(=O)=O)c2)c1,,
6.39,8.00,CCCN(CCC)C(=O)c1cc(Oc2ccc(OC)cc2)cc(C(=O)N[C@@H](Cc2cc(F)cc(F)c2)[C@H](O)CNCc2cccc(OC)c2)c1,,
7.92,8.70,CCCN(CCC)C(=O)c1cc(C(=O)N[C@@H](Cc2cc(F)cc(F)c2)[C@H](O)CNCc2cccc(OC)c2)cc(C(C)O)c1 (stereo not given in full),,
7.07,8.00,CO/N=C(\C)c1cc(C(=O)N[C@@H](Cc2cc(F)cc(F)c2)[C@H](O)CNCc2cccc(OC)c2)cc(N(c2ccccc2)S(C)(=O)=O)c1,,
< 6.48,8.00,CCCN(CCC)C(=O)c1cc(Oc2ccccc2)cc(C(=O)N[C@@H](Cc2cc(F)cc(F)c2)[C@H](O)CNCc2cccc(OC)c2)c1,,
7.57,8.52,CCCN(CCC)C(=O)c1cc(C(=O)N[C@@H](Cc2cc(F)cc(F)c2)[C@H](O)CNCc2cccc(OC)c2)cc(/C(C)=N\O)c1,,
< 6.58,7.77,COc1cccc(CNC[C@@H](O)[C@H](Cc2cc(F)cc(F)c2)NC(=O)c2cc(C(C)=O)cc(N(c3ccccc3)S(C)(=O)=O)c2)c1,,
6.92,8.00,C=CCO/N=C(/C)c1cc(C(=O)N[C@@H](Cc2cc(F)cc(F)c2)[C@H](O)CNCc2cccc(OC)c2)cc(C(=O)N(CCC)CCC)c1,,
6.74,8.22,CCCO/N=C(/C)c1cc(C(=O)N[C@@H](Cc2cc(F)cc(F)c2)[C@H](O)CNCc2cccc(OC)c2)cc(N(c2ccccc2)S(C)(=O)=O)c1,,
< 6.48,8.05,COc1cccc(CNC[C@@H](O)[C@H](Cc2cc(F)cc(F)c2)NC(=O)c2cc(/C(C)=N\OCc3ccccc3)cc(N(C)S(C)(=O)=O)c2)c1,,
7.47,7.80,CCCN(CCC)C(=O)c1cc(CC(C)O)cc(C(=O)N[C@@H](Cc2cc(F)cc(F)c2)[C@H](O)CNCc2cccc(OC)c2)c1 (stereo not given in full),,
7.04,7.54,COc1cccc(CNC[C@@H](O)[C@H](Cc2cc(F)cc(F)c2)NC(=O)c2cc(C(=O)N[C@H](C)c3ccccc3)cc(C(C)O)c2)c1 (stereo not given in full),,
7.04,8.05,COc1cccc(CNC[C@@H](O)[C@H](Cc2cc(F)cc(F)c2)NC(=O)c2cc(/C(C)=N\O)cc(N(c3ccccc3)S(C)(=O)=O)c2)c1,,
7.38,9.00,CCCN(CCC)C(=O)c1cc(C(=O)N[C@@H](Cc2cc(F)cc(F)c2)[C@H](O)CNCc2cccc(OC)c2)cc(/C(C)=N\OC)c1,,
7.06,7.92,COc1cccc(CNC[C@@H](O)[C@H](Cc2cc(F)cc(F)c2)NC(=O)c2cc(/C(C)=N\OCc3ccccc3)cc(N(c3ccccc3)S(C)(=O)=O)c2)c1,,
< 6.48,7.89,CCCN(CCC)C(=O)c1cc(Sc2ccccc2)cc(C(=O)N[C@@H](Cc2cc(F)cc(F)c2)[C@H](O)CNCc2cccc(OC)c2)c1,,
6.79,7.57,C=CCO/N=C(/C)c1cc(C(=O)N[C@@H](Cc2cc(F)cc(F)c2)[C@H](O)CNCc2cccc(OC)c2)cc(N(c2ccccc2)S(C)(=O)=O)c1,,
7.03,7.66,CCCN(CCC)C(=O)c1cc(Oc2ccc(F)cc2)cc(C(=O)N[C@@H](Cc2cc(F)cc(F)c2)[C@H](O)CNCc2cccc(OC)c2)c1,,
6.69,7.60,CCCO/N=C(/C)c1cc(C(=O)N[C@@H](Cc2cc(F)cc(F)c2)[C@H](O)CNCc2cccc(OC)c2)cc(N2CCCCS2(=O)=O)c1,,
